Several values for one entry are separate records, joined by “and”; a condition that tells them apart may be missing. Equal entries are not always repeated.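 A five-concentration, 48-hour dose response in 96-well plates underlies each endpoint, interpolated linearly between surrounding concentrations. The concentration for 50% growth inhibition is given as GI50. TGI is the concentration that stops growth completely.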

Assay in all cases: DTP human tumour cell line panel, 48 h
In assay [1] the test system is CAKI-1 renal.
In assay [2] the test system is U251 CNS.
Assay [3] deals with NCI-H460 lung.
The subject of assay [4] is EKVX NSCLC.
Assay [5] deals with TK-10 renal.
The test system of assay [6] is A498 renal.
Assay [7] concerns SNB-75 CNS.
Assay [8] concerns OVCAR-8 ovarian.
The test system of assay [9] is SK-MEL-2 melanoma.
Assay [10] has as its system SK-OV-3 ovarian.

Broadly, the GI50 is the concentration giving 50% growth inhibition. In general, TGI refers to the concentration at which net growth stops. A higher TGI goes with less potent growth arrest. Regarding `C=C1CC2(OC1=O)C(=O)N(CCCCCCCN1C(=O)C3(CC(=C)C(=O)O3)c3ccccc31)c1ccccc12` (stereo not given), the GI50 in assay [1] is 1400 nM; in assay [2], 5810 nM; in [3] it was 2900 nM; in assay [4] it was 9350 nM; in assay [5], 2190 nM; in assay [6], 5170 nM. Moreover, the GI50 was 6350 nM in assay [7], 1160 nM in [8], 7510 nM in assay [9] and 9970 nM in [10]. Besides, the TGI turned out to be 5960 nM in assay [1]; 12400 nM in [2]; 12300 nM in assay [3]; 19300 nM in assay [4]; 8320 nM in assay [5]; 13100 nM in assay [6]. Also, the TGI in assay [7] is 19500 nM; in assay [8], 5050 nM; in assay [9], 17200 nM; in assay [10] it was 37800 nM.
Turning to `C[C@@H]1C[C@@H](O)[C@]2(O)O[C@@H]3C[C@@]4(C=O)[C@@H](CC[C@@H]5[C@@H]4CC[C@]4(C)[C@@H](C6=CC(=O)OC6)CC[C@]54O)C[C@H]3O[C@@H]2O1`, the 50% growth inhibitory concentration (GI50) in [1] was 43.2 nM; in assay [2] it was 44.9 nM and 15.3 nM; in assay [3] it was 22.9 nM; in assay [4], 10.4 nM; in assay [5], 20.2 nM and 5 nM; in assay [6] it was 9.98 nM. The GI50 is 51 nM in assay [7]; 39.3 nM and 14.3 nM in assay [8]; 52 nM and 89.8 nM in assay [9]; 63.6 nM and 17.3 nM in [10]. Besides, the TGI in assay [1] was 48.6 nM and 360 nM; in assay [2], 72.5 nM and 158 nM and 69.7 nM; in assay [3], 19.5 nM and 81.7 nM and 19.2 nM; in assay [4], 96.4 nM and 104 nM; in assay [5], 98 nM and 77.5 nM and 55.8 nM; in assay [6], 115 nM and 39.9 nM. Besides, the TGI in [7] was 91.9 nM and 220 nM and 288 nM; in assay [8] it was 57 nM and 130 nM and 116 nM.
Take `CCN(CC)CCOc1nc2ccc(OC)cc2c2c1-c1ccc(OC)cc1C2=O`: the GI50 is 1150 nM in [1]; 454 nM in assay [2]; 371 nM in assay [3]; 970 nM in [4]; 1380 nM in assay [5]; 802 nM in [6]. For the same compound, the GI50 in assay [7] is 1360 nM; in assay [8], 526 nM; in [9], 2240 nM; in [10] it was 2880 nM. Moreover, the TGI in [1] worked out at 2880 nM; in assay [2] it was 1720 nM; in assay [3], 1430 nM; in assay [4], 2810 nM; in assay [5], 2950 nM; in assay [6] it was 2170 nM. Further, the TGI in assay [7] came to 5400 nM; in assay [8], 2260 nM; in assay [9], 4050 nM; in assay [10], 14800 nM.
Turning to `Cn1c(=O)nc2n(-c3ccc(Cl)cc3)c3ccc(Cl)cc3nc-2c1=O`, the TGI was 25900 nM in assay [1]; 33700 nM in [3]; 28700 nM in [4]; 53600 nM in [5]; 24600 nM in assay [6]; 10400 nM in [7]. The figures for the TGI in assay [8], in assay [9] and in assay [10] were 52500 nM, 16900 nM and above 100000 nM, respectively.
Take `O=C(Oc1ccc(Cl)cc1Cl)c1ccccc1Nc1ccnc(C(F)(F)F)c1`: the GI50 in assay [1] is 2100 nM; in assay [3], 4260 nM; in assay [4], 18500 nM; in assay [5], 4050 nM; in [6], 21500 nM; in assay [8], 4790 nM. For the same compound, the GI50 in assay [9] was 20500 nM. For the same compound, the TGI in assay [1] came to 4140 nM; in [3], 33800 nM; in [4] it was 40900 nM; in assay [5] it was 23900 nM; in assay [6], 37300 nM; in assay [8], 30800 nM. Further, in [9], the total growth inhibition concentration (TGI) is above 100000 nM.
Take `N#Cc1c(-c2nc3ccccc3s2)c(=O)oc2cc(O)ccc12`: the TGI in assay [1] was 85600 nM; in assay [2] it was above 100000 nM; in assay [3], above 100000 nM; in assay [4] it was above 100000 nM; in assay [5], above 100000 nM; in assay [6], above 100000 nM. The TGI in assay [7], in assay [8] and in assay [9] was above 100000 nM throughout.
In the case of `CN1CC[C@@H](c2c(O)cc(O)c3c(=O)cc(-c4ccccc4Cl)oc23)[C@@H](O)C1`, the TGI in [1] was above 39600 nM; in assay [2], 31000 nM; in assay [4] it was 435 nM and 947 nM; in assay [5], 34800 nM; in [6], 181 nM and 1130 nM; in [7], 250 nM and 89.4 nM. Moreover, the TGI in [9] was 215 nM and 209 nM and 101 nM; in [10], above 100000 nM. In addition, the GI50 in assay [3] is 68.1 nM and 69.3 nM; in assay [4], 141 nM; in [5], 119 nM and 93.7 nM; in [6], 60.4 nM; in assay [7], 97.5 nM; in assay [9], 124 nM and 71 nM. In [10], the 50% growth inhibitory concentration (GI50) is 201 nM and 428 nM.
`O=C(CNc1nncs1)NO`: the concentration for total growth inhibition (TGI) in [2], in assay [3], in assay [4], in assay [5], in assay [6] and in assay [7] was above 100000 nM throughout. The TGI in [8], in assay [9] and in [10] was above 100000 nM in each case.
Regarding `O=C1NCc2ccc3c(-c4cccc(Cl)c4)c[nH]c3c21`, the GI50 was 205 nM in assay [1]; 247 nM in assay [2]; 201 nM in assay [3]; 381 nM in [4]; 7120 nM in assay [5]; 58 nM in assay [6]. Besides, the GI50 in assay [8] is 503 nM; in assay [9], 317 nM; in assay [10] it was 339 nM. For the same compound, the TGI in assay [1] was above 50000 nM; in assay [2], above 50000 nM; in assay [3] it was above 38200 nM; in [4], above 50000 nM; in [5], above 50000 nM; in assay [6] it was 671 nM. Moreover, the TGI in assay [8], in [9] and in assay [10] was above 50000 nM each time.
With `O=[N+]([O-])c1ccc(C(c2c[nH]c3ccccc23)c2c[nH]c3ccccc23)cc1`, the TGI in [2] came out at 45300 nM; in assay [3] it was 12600 nM; in assay [4], 48200 nM; in assay [5], 28500 nM; in assay [6], 30100 nM; in assay [7], 18500 nM. Besides, the TGI in [8] amounted to 33200 nM; in assay [9] it was 20100 nM; in [10] it was 33100 nM.
As for `CC[C@H](C)N(CCN)C(=O)c1cc2ccccc2c(-c2ccccc2Cl)n1`, the TGI in assay [2] was found to be 24400 nM; in assay [3] it was 27100 nM; in assay [4], 25400 nM; in assay [5], 25500 nM; in assay [6] it was 17400 nM; in assay [8] it was 27600 nM. In addition, the TGI in [9] came to 33500 nM.
On to `COc1cc(OC)c([C@@H]2OC(=O)C3C2C(=O)O[C@H]3c2cc(OC)c(OC)cc2OC)cc1OC` (stereo not given in full), for which the TGI in [1], in assay [2], in assay [3], in [4], in [6] and in assay [7] was above 100000 nM throughout. For the same compound, the TGI in [8], in [9] and in assay [10] was above 100000 nM each time.
For `CC(=O)n1c(COS(C)(=O)=O)nc2ccccc21`, the total growth inhibition concentration (TGI) in assay [1], in assay [2], in [3], in assay [4], in assay [5] and in [6] was above 100000 nM throughout. For the same compound, the TGI in assay [7], in assay [8] and in assay [9] was above 100000 nM throughout.
With `Cc1cc2c(c(C#N)c1C)NC(=O)CCC2=O`, the TGI in assay [1], in assay [2], in assay [3], in [4], in [6] and in assay [7] was above 100000 nM throughout. For the same compound, the concentration for total growth inhibition (TGI) in [8] and in [9] was above 100000 nM throughout.
As for `CCOC(=O)C(=O)Nc1nc2c(s1)C(=O)c1ccccc1C2=O`, the TGI worked out at 33500 nM in [1]; 31000 nM in assay [2]; 45800 nM in assay [3]; 29600 nM in assay [4]; 33200 nM in [6]; 30200 nM in assay [7]. Further, the total growth inhibition concentration (TGI) was found to be 47500 nM in assay [8] and 31700 nM in assay [9].
For `CCC[CH2][Sn-]([CH2]CCC)([CH2]CCC)[O]c1cc(Cl)c(Cl)cc1Cl`, the GI50 was 179 nM in [2]; 165 nM in assay [3]; 216 nM in assay [4]; 287 nM in [5]; 220 nM in assay [6]; 231 nM in [7]. In addition, the results for the GI50 in assay [8], in assay [9] and in assay [10] were 221 nM, 377 nM and 150 nM, respectively. In addition, the TGI in assay [2] is 350 nM; in assay [3], 344 nM; in assay [4], 900 nM; in assay [5], 957 nM; in [6], 609 nM; in assay [7], 1140 nM. Besides, the values for the concentration for total growth inhibition (TGI) in [8], in assay [9] and in assay [10] were 557 nM, 1860 nM and 379 nM, respectively.
